Data taken from patent US8093388B2, “3-aza spiro[5,5]undec-8-ene derivatives and their use as monoamine neurotransmitter re-uptake inhibitors” (Neurosearch A/S, priority 2005, dated 2012).
Where two headings read alike, the source gives them in different places.

Columns and labels:
[1] = target: T1, reuptake of noradrenaline (NA) in synaptosomes (Rattus norvegicus, UniProt Q9WTR4); assay: Inhibition of noradrenaline (NA) reuptake in synaptosomes; assay type: biochemical; settings: 3H-NA, read-out: NA-uptake IC50
T1 construct: in synaptosomes as described in WO 97/16451; from tissue
Excerpt: (§1) Compounds of the invention may be tested for their ability to inhibit reuptake of the monoamines dopamine, noradrenaline and serotonin in synaptosomes e.g. such as described in WO 97/30997. Based on the balanced activity observed in these tests the compound of the invention is considered useful for the treatment, prevention or alleviation of a disease or a disorder or a condition of a mammal, including a human, which disease, disorder or condition is responsive to inhibition of monoamine neurotransmitter re-uptake in the central nervous system.
(§2) A number of compounds were tested for their ability to inhibit the reuptake of the monoamine neurotransmitters dopamine (DA) noradrenaline (NA) and serotonine (5-HT) in synaptosomes as described in WO 97/16451.
(§3) The test values are given as IC50 (the concentration (μM) of the test substance which inhibits the specific binding of ^3H-DA, ^3H-NA, or ^3H-5-HT by 50%).

[2] = target: T2, reuptake of serotonine (5-HT) in synaptosomes (Rattus norvegicus, UniProt P31652); assay: Inhibition of serotonine (5-HT) reuptake in synaptosomes; assay type: biochemical
T2 construct: in synaptosomes as described in WO 97/16451; from tissue
Excerpt: as §1, §2, §3

[3] = target: T3, reuptake of dopamine (DA) in synaptosomes (Rattus norvegicus, UniProt P23977); assay: Inhibition of dopamine (DA) reuptake in synaptosomes; assay type: biochemical; settings: 3H-DA, read-out: DA-uptake IC50
T3 construct: in synaptosomes as described in WO 97/16451; from tissue
Excerpt: as §1, §2, §3

[4] = synaptosomes, 3H-5-HT, read-out: 5-HT-uptake IC50

T1 sequence (Q9WTR4 1-597): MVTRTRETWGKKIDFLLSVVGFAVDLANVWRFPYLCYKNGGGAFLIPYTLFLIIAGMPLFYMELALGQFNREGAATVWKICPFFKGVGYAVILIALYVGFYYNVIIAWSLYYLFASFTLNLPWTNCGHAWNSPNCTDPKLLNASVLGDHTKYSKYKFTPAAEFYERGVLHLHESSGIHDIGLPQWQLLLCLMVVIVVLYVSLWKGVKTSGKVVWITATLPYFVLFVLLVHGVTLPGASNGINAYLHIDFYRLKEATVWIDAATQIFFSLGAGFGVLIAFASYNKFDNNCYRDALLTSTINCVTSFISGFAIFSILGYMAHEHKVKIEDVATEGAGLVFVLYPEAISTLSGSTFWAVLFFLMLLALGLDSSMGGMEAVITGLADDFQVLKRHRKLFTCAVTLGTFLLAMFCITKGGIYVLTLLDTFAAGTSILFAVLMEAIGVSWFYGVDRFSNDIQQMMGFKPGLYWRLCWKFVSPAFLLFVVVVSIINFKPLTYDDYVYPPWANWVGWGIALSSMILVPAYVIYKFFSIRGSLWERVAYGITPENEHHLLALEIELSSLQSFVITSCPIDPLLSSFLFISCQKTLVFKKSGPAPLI
T3 sequence (P23977 whole entry): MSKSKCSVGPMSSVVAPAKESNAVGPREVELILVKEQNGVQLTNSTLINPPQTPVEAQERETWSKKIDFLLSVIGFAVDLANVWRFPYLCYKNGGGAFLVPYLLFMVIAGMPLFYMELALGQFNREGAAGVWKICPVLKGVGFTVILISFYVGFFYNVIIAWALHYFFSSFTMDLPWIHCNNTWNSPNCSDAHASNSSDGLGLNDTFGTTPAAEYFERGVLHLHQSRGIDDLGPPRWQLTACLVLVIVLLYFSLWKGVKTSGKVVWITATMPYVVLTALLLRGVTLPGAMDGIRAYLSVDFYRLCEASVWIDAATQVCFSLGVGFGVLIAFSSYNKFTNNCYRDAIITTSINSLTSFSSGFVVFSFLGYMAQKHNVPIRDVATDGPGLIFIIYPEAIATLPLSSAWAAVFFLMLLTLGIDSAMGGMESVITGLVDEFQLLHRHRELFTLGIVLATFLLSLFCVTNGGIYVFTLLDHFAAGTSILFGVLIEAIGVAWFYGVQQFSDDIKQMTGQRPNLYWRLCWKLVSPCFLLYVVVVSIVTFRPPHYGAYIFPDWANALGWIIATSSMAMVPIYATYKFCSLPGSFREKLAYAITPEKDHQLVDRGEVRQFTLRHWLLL
T2 sequence (P31652 whole entry): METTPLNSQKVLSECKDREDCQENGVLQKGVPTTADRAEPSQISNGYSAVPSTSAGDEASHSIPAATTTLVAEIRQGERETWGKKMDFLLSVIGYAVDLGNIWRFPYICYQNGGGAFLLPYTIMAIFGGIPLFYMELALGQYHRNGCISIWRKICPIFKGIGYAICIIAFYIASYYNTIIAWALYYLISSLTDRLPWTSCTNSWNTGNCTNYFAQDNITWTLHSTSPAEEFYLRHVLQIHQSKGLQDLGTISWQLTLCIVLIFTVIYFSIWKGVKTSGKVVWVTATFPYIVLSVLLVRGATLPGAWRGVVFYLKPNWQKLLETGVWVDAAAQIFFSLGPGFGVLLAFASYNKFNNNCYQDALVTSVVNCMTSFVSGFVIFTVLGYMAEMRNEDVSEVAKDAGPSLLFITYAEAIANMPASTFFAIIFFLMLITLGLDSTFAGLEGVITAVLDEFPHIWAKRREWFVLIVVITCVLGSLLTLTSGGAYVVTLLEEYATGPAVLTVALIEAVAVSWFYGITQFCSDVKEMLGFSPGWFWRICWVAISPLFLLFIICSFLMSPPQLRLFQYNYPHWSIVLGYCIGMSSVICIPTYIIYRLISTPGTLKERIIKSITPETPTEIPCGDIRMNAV

SMILES | melting point | IC50 [1] | IC50 [2, 4] | IC50 [3] | IC50 [2]
C1=C(c2cc3ccccc3o2)CCC2(C1)CCNCC2.O=C(O)C(F)(F)F | 215.7 to 217.3 °C | – | – | – | –
CN1CCC2(CC=C(c3cc4ccccc4o3)CC2)CC1.O=C(O)/C=C/C(=O)O | 224.2 to 226.1 °C | – | – | – | –
Brc1cccc(C2=CCC3(CCNCC3)CC2)n1 [2nd last compound of method A, 9-(6-Bromo-pyridin-2-yl)-3-aza-spiro[5.5]undec-8-ene] | 161.3 to 162.8 °C | 1000 nM | – | 2000 nM | 18 nM
COc1ccc2cc(C3=CCC4(CC3)CCN(C)CC4)ccc2c1 [9-(6-Methoxy-naphthalen-2-yl)-3-methyl-3-aza-spiro[5.5]undec-8-ene] | 146.9 to 149.5 °C | – | – | – | –
CN1CCC2(CC=C(c3cc4ccccc4s3)CC2)CC1 [9-Benzo[b]thiophen-2-yl-3-methyl-3-aza-spiro[5.5]undec-8-ene] | 89.7 to 91.2 °C | – | – | – | –

The next lines start with results.

melting point | IC50 [1] | IC50 [2, 4] | IC50 [3] | SMILES | IC50 [2]
104.2 to 107.1 °C | – | – | – | Clc1ccc(C2=CCC3(CCNCC3)CC2)cc1 | –
107.3 to 110.2 °C | 580 nM | 20 nM | 1200 nM | C1=C(c2cc3ccccc3s2)CCC2(C1)CCNCC2 [2nd compound of method A, 9-Benzo[b]thiophen-2-yl-3-aza-spiro[5.5]undec-8-ene] | –
146.9 to 149.5 °C | 120 nM | 16 nM | 38 nM | COc1ccc2cc(C3=CCC4(CCNCC4)CC3)ccc2c1 [4th compound of method A, 9-(6-Methoxy-naphthalen-2-yl)-3-aza-spiro[5.5]undec-8-ene] | –
182 to 185 °C | – | – | – | COc1cc(C2=CCC3(CCNCC3)CC2)ccc1Cl [9-(4-Chloro-3-methoxy-phenyl)-3-aza-spiro[5.5]undec-8-ene] | –
137.1 to 141.3 °C | – | – | – | C1=C(c2ccc3ccccc3c2)CCC2(C1)CCNCC2 [9-Naphthalen-2-yl-3-aza-spiro[5.5]undec-8-ene] | –
